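These data come from cells grown in 96-well plates and exposed to compound for 48 hours at five concentrations. TGI: total growth inhibition.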
What was measured:
Assay in all cases: inhibition of tumour cell growth, NCI panel, 48 h
MDA-N = system: MDA-N
DU-145 prostate = system: DU-145 prostate
SF-268 CNS = system: SF-268 CNS
SW-620 colon = system: SW-620 colon
HCT-116 colon = system: HCT-116 colon
M14 melanoma = system: M14 melanoma
HCC-2998 colon = system: HCC-2998 colon
SK-MEL-28 melanoma = system: SK-MEL-28 melanoma
LOX IMVI melanoma = system: LOX IMVI melanoma
SF-539 CNS = system: SF-539 CNS
UACC-62 melanoma = system: UACC-62 melanoma
OVCAR-3 ovarian = system: OVCAR-3 ovarian
KM12 colon = system: KM12 colon
NCI-H23 lung = system: NCI-H23 lung
SK-OV-3 ovarian = system: SK-OV-3 ovarian
ACHN renal = system: ACHN renal
SN12C renal = system: SN12C renal
OVCAR-8 ovarian = system: OVCAR-8 ovarian
BT-549 breast = system: BT-549 breast
NCI-H522 lung = system: NCI-H522 lung

SMILES	TGI (MDA-N) [µM]	TGI (DU-145 prostate) [µM]	TGI (SF-268 CNS) [µM]	TGI (SW-620 colon) [µM]	TGI (HCT-116 colon) [µM]	TGI (M14 melanoma) [µM]	TGI (HCC-2998 colon) [µM]	TGI (SK-MEL-28 melanoma) [µM]	TGI (LOX IMVI melanoma) [µM]	TGI (SF-539 CNS) [µM]	TGI (UACC-62 melanoma) [µM]	TGI (OVCAR-3 ovarian) [µM]	TGI (KM12 colon) [µM]	TGI (NCI-H23 lung) [µM]	TGI (SK-OV-3 ovarian) [µM]	TGI (ACHN renal) [µM]	TGI (SN12C renal) [µM]	TGI (OVCAR-8 ovarian) [µM]	TGI (BT-549 breast) [µM]	TGI (NCI-H522 lung) [µM]
COCCOCc1nc(C#N)c(N)o1	> 100	> 100	> 100	> 100	> 100	> 100	> 100	> 100	> 100	> 100	> 100	> 100	> 100	> 100	> 100	> 100	> 100	–	–	–
COC(=O)Cc1cc(O)c(C/C=C(\C)CC/C=C(\C)C(O)C(=O)C=C(C)C)cc1O (stereo unspecified)	> 100	> 100	40.6	87.8	31.1	64.8	–	–	–	40.5	44.4	42.5	43.2	93.3	78.8	71	58	55.1	72.8	39.8
COc1ccc(C(=O)Sc2c(-c3ccccc3)c(=O)n(-c3ccccc3)c(=S)n2-c2ccccc2)cc1	> 100	> 100	> 100	> 100	> 100	> 100	> 100	> 100	> 100	35.6	> 100	> 100	> 100	> 100	> 100	> 100	> 100	> 100	–	> 100
CS(=O)(=O)Nc1ccc(N2Cc3cnc4ccc5[nH]ccc2c5c34)cc1	29.3	40.9	–	> 100	27.8	32.2	–	41.6	28.2	–	35.9	32.2	> 100	76.9	–	> 100	35	62.5	51.3	29.5
Cc1ccc(/C=N/n2c(=O)[nH]c3ccccc3c2=O)cc1	> 100	> 100	> 100	> 100	> 100	> 100	–	> 100	> 100	> 100	> 100	> 100	> 100	> 100	> 100	> 100	> 100	–	> 100	–
CCC(C)(C)/C(CC(O)(C(F)(F)F)C(F)(F)F)=N\O	> 100	> 100	> 100	> 100	> 100	> 100	> 100	> 100	> 100	> 100	> 100	> 100	> 100	> 100	> 100	> 100	> 100	–	–	> 100
O=S(=O)(c1ccccc1)n1c2cc3cccnc3nc2c2cccnc21	> 100	–	> 100	> 100	> 100	> 100	> 100	> 100	> 100	–	–	> 100	> 100	> 100	> 100	> 100	> 100	> 100	> 100	> 100
O=C(c1ccc(O)cc1)C1c2c3c(cc(O)c2C(c2ccc(O)cc2)C1c1cc(O)cc(O)c1)OC(c1ccc(O)cc1)C3c1cc2c(cc1O)OC(c1ccc(O)cc1)C2c1cc(O)cc(O)c1 (stereo unspecified)	–	–	> 12.5	> 12.5	> 12.5	> 12.5	> 12.5	> 12.5	> 12.5	> 12.5	> 12.5	> 12.5	> 12.5	> 12.5	–	> 12.5	> 12.5	> 12.5	–	> 12.5
CNC(=S)N(C)C(=S)Nn1c(=O)c(C)nn(C)c1=S	–	–	> 100	> 100	> 100	> 100	–	> 100	> 100	> 100	> 100	–	> 100	> 100	–	> 100	> 100	> 100	–	> 100
C[C@]12CC[C@H](O)CC1=CC[C@@H]1[C@@H]2CC[C@]2(C)C(=O)[C@@H](N3CCOCC3)C[C@@H]12	> 100	> 100	> 100	> 100	> 100	> 100	> 100	> 100	> 100	> 100	> 100	> 100	> 100	> 100	> 100	> 100	> 100	> 100	–	> 100
CC(=O)c1c2c(cc3c1CC1(Cc4ccccc4C1=O)C3)CCC2 (stereo unspecified)	> 100	> 100	> 100	> 100	66.6	74.5	> 100	68.4	55.7	> 100	–	52.7	49	> 100	> 100	> 100	> 100	89.1	–	> 100
CC(=O)OCCn1cnc2nc(Nc3ccccc3)nc(Cl)c21	> 100	> 100	> 100	> 100	> 100	–	> 100	> 100	> 100	> 100	> 100	> 100	> 100	> 100	> 100	> 100	> 100	> 100	–	> 100
COc1ccc(C2S/C(=C\c3ccccc3O)C(=O)N2NC(=O)Cc2ccccc2)cc1 (stereo unspecified)	–	–	> 100	> 100	> 100	> 100	–	> 100	> 100	> 100	> 100	–	> 100	> 100	> 100	> 100	> 100	> 100	–	> 100

Source: PubChem BioAssay (NCI)
